Data taken from ChEMBL document CHEMBL2384999, “Discovery of a potent, dual serotonin and norepinephrine reuptake inhibitor” (ACS Med Chem Lett, 2013).
One block for each molecule: values may come before it. Calls of active or inactive are those of the source. The calls are words filed in the database; no cut-off is given here.

What was measured:
[1] = biological target: T1, Sodium-dependent serotonin transporter (Homo sapiens, UniProt P31645); assay: biochemical; assay type: cell-based, HEK293
Target sequence in this assay (P31645 whole entry): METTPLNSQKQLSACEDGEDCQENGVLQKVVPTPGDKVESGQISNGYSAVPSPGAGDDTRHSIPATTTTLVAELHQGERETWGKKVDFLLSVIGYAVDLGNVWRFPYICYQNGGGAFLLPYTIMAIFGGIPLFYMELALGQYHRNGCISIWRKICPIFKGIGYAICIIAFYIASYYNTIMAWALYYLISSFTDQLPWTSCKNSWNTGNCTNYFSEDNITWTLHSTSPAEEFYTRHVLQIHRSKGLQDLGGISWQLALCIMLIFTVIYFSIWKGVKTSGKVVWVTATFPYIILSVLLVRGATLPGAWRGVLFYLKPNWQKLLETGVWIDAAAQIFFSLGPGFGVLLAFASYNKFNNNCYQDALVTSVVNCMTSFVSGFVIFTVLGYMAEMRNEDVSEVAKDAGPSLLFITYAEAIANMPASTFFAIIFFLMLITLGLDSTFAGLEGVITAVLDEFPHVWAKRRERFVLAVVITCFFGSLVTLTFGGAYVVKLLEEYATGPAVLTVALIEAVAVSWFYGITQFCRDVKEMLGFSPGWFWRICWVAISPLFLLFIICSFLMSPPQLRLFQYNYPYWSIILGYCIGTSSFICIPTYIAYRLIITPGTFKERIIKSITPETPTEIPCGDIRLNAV
Description: Displacement of [3H]citalopram from human SERT transfected in HEK293 cells after 3 hrs by Wallac counting analysis

[2] = biological target: Sodium-dependent dopamine transporter (Homo sapiens, UniProt Q01959); assay: biochemical
Description: Displacement of [3H]WIN35428 from human DAT transfected in HEK293 cells after 3 hrs by Wallac counting analysis

[3] = Serum protein binding in human; assay type: ADME, cell-free; conditions: read-out: PB (converted)
[4] = system: Rattus norvegicus; assay: Neurotoxicity in Sprague-Dawley rat at 100 mg/kg, po by rotorod test; assay type: toxicity, organism-based; parameters: dose 100 mg/kg, route oral; conditions: in vivo
[5] = Ratio of drug uptake in brain to plasma in Sprague-Dawley rat at 10 mg/kg, po; assay type: ADME, organism-based; parameters: dose 10 mg/kg, route oral; conditions: read-out: BPR
[6] = system: Plasma; assay: Drug uptake in Sprague-Dawley rat plasma at 10 mg/kg, po; assay type: ADME, organism-based; parameters: dose 10 mg/kg, route oral; conditions: in vivo
[7] = system: Brain; assay: Drug uptake in Sprague-Dawley rat brain at 10 mg/kg, po; assay type: ADME, organism-based; parameters: dose 10 mg/kg, route oral; conditions: in vivo, read-out: Drug uptake
[8] = biological target: Cytochrome P450 2D6 (Homo sapiens, UniProt P10635); assay: Inhibition of CYP2D6 (unknown origin); assay type: ADME
[9] = biological target: Cytochrome P450 2C9 (Homo sapiens, UniProt P11712); assay: Inhibition of CYP2C9 (unknown origin); assay type: ADME
[10] = biological target: Cytochrome P450 3A4 (Homo sapiens, UniProt P08684); assay: Inhibition of CYP3A4 (unknown origin); assay type: ADME
[11] = biological target: T2, Cytochrome P450 1A2 (Homo sapiens, UniProt P05177); assay: Inhibition of CYP1A2 (unknown origin); assay type: ADME
T2 sequence (P05177 whole entry): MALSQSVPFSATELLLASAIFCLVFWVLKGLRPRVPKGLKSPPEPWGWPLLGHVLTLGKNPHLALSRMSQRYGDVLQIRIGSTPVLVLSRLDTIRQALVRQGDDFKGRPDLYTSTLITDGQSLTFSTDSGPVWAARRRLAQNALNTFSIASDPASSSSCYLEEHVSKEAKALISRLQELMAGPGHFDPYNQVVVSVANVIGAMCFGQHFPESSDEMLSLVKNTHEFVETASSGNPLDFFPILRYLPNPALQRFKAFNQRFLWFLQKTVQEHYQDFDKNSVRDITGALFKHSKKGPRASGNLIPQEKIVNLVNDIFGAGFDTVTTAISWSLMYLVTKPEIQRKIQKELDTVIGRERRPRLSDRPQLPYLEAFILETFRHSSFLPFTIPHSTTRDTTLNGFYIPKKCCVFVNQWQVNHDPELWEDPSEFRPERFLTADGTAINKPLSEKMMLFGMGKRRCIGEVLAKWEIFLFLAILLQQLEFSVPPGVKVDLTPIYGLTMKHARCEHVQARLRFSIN

[12] = biological target: CYP2C9 (Homo sapiens, UniProt P11712); assay: Inhibition of CYP2C9 (unknown origin) at 10 uM; assay type: ADME
[13] = biological target: CYP3A4 (Homo sapiens, UniProt P08684); assay: Inhibition of CYP3A4 (unknown origin) at 10 uM; assay type: ADME
[14] = biological target: CYP2D6 (Homo sapiens, UniProt P10635); assay: Inhibition of CYP2D6 (unknown origin) at 10 uM; assay type: ADME
[15] = Oral bioavailability in dog at 1 mg/kg; assay type: ADME, organism-based, Canis lupus familiaris; conditions: in vivo
[16] = Oral bioavailability in rat at 1 mg/kg; assay type: ADME, organism-based; conditions: in vivo
[17] = Volume of distribution at steady state in dog at 1 mg/kg, iv; assay type: ADME, organism-based, Canis lupus familiaris; parameters: dose 1 mg/kg, route intravenous; conditions: in vivo, read-out: Vdss
[18] = Volume of distribution at steady state in rat at 1 mg/kg, iv; assay type: ADME, organism-based; parameters: dose 1 mg/kg, route intravenous; conditions: in vivo, read-out: Vdss
[19] = Clearance in dog at 1 mg/kg, iv; assay type: ADME, organism-based, Canis lupus familiaris; parameters: dose 1 mg/kg, route intravenous; conditions: in vivo
[20] = Clearance in rat at 1 mg/kg, iv; assay type: ADME, organism-based; parameters: dose 1 mg/kg, route intravenous; conditions: in vivo
[21] = Half life in rat at 1 mg/kg, iv; assay type: ADME, organism-based; parameters: dose 1 mg/kg, route intravenous; conditions: in vivo
[22] = Half life in dog at 1 mg/kg, iv; assay type: ADME, organism-based, Canis lupus familiaris; parameters: dose 1 mg/kg, route intravenous; conditions: in vivo
[23] = AUC (0 to infinity) in dog at 1 mg/kg, iv; assay type: ADME, organism-based, Canis lupus familiaris; parameters: dose 1 mg/kg, route intravenous, time infinity; conditions: plasma
[24] = AUC (0 to infinity) in rat at 1 mg/kg, iv; assay type: ADME, organism-based; parameters: time infinity, dose 1 mg/kg, route intravenous; conditions: plasma
[25] = AUC (0 to infinity) in dog at 1 mg/kg, po; assay type: ADME, organism-based, Canis lupus familiaris; parameters: time infinity, dose 1 mg/kg, route oral; conditions: plasma
[26] = AUC (0 to infinity) in rat at 1 mg/kg, po; assay type: ADME, organism-based; parameters: time infinity, dose 1 mg/kg, route oral; conditions: plasma
[27] = Tmax in dog at 1 mg/kg, po; assay type: ADME, organism-based, Canis lupus familiaris; parameters: dose 1 mg/kg, route oral; conditions: in vivo
[28] = Tmax in rat at 1 mg/kg, po; assay type: ADME, organism-based; parameters: dose 1 mg/kg, route oral; conditions: in vivo
[29] = Cmax in dog at 1 mg/kg, po; assay type: ADME, organism-based, Canis lupus familiaris; parameters: dose 1 mg/kg, route oral; conditions: in vivo
[30] = Cmax in rat at 1 mg/kg, po; assay type: ADME, organism-based; parameters: dose 1 mg/kg, route oral; conditions: in vivo
[31] = Metabolic stability in human liver microsomes after 30 mins by LC-ESI/MS analysis; assay type: ADME, Microsome; conditions: read-out: Stability
[32] = Metabolic stability in dog liver microsomes after 30 mins by LC-ESI/MS analysis; assay type: ADME, Canis lupus familiaris, Microsome; conditions: read-out: Stability
[33] = Metabolic stability in rat liver microsomes after 30 mins by LC-ESI/MS analysis; assay type: ADME, Microsome; conditions: read-out: Stability
[34] = biological target: Sodium-dependent serotonin transporter (Rattus norvegicus, UniProt P31652)
Description: Displacement of [3H]-citalopram from Sprague-Dawley rat brain SERT after 1 hr

[35] = species: Rattus norvegicus; assay: animal or person; conditions: po
[36] = species: Rattus norvegicus; assay: animal or person; conditions: Sprague-Dawley, po, 2 h
Description: (§1) In vivo SERT receptor occupancy in po dosed Sprague-Dawley rat brain cortex after 2 hrs in presence of DASB

[37] = biological target: T1, Sodium-dependent serotonin transporter; assay: Inhibition of human SERT transfected in HEK293 cells assessed as inhibition of [3H]serotonin uptake incubated 30 mins prior to substrate addition measured after 1 minute 50 secs; assay type: cell-based
Target sequence in this assay (P31645 whole entry, looked up): as the sequence (P31645 whole entry) above

[38] = system: Rattus norvegicus; conditions: Sprague-Dawley
Description: as §1

[39] = system: Rattus norvegicus

Chain of Sodium-dependent dopamine transporter (Q01959 whole entry): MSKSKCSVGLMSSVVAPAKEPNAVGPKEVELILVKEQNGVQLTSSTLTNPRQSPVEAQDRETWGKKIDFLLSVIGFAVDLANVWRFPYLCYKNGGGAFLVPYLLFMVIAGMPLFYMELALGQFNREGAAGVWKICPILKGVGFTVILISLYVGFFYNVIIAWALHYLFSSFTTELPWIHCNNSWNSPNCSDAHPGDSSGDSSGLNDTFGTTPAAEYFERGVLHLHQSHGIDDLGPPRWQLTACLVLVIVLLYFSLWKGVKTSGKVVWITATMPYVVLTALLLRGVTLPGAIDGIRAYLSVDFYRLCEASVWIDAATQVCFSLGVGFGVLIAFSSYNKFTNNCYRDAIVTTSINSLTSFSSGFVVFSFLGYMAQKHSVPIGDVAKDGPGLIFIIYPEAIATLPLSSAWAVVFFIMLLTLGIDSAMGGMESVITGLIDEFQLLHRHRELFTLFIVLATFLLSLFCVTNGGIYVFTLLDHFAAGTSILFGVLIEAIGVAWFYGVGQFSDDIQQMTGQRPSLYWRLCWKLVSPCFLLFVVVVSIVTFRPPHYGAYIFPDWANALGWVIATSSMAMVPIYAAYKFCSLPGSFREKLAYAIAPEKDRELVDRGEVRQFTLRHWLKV
Chain of Sodium-dependent serotonin transporter (Rattus norvegicus, UniProt P31652) (P31652 whole entry): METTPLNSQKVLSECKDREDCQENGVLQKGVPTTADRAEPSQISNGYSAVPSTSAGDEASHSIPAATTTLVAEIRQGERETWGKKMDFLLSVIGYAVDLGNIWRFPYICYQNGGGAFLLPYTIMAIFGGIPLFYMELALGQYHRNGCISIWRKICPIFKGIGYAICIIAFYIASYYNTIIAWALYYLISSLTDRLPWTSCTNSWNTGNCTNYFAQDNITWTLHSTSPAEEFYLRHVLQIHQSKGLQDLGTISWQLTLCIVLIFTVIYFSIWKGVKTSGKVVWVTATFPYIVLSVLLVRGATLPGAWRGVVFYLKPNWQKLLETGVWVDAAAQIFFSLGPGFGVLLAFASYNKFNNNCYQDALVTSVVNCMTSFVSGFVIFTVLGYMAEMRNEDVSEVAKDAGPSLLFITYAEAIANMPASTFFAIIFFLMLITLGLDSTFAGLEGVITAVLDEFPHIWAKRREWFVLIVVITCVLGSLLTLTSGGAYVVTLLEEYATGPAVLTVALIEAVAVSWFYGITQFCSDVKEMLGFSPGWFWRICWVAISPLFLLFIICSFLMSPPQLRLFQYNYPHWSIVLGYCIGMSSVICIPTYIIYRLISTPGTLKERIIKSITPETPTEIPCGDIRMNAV
Chain of CYP2C9 (P11712 whole entry): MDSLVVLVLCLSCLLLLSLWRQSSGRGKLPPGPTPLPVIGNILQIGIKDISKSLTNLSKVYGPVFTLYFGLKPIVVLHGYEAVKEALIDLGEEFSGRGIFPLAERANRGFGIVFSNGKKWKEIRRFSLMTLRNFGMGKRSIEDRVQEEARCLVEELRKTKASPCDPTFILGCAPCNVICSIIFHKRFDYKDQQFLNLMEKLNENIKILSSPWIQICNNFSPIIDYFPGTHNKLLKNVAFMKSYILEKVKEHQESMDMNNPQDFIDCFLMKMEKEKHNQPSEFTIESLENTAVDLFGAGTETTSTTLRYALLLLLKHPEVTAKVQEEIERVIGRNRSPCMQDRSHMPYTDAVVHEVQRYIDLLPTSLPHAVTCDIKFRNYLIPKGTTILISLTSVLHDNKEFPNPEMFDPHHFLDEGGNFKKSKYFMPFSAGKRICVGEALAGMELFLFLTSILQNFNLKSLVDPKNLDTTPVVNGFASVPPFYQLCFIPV
Chain of Cytochrome P450 2C9 (P11712 whole entry): as above
Chain of Cytochrome P450 2D6 (P10635 whole entry): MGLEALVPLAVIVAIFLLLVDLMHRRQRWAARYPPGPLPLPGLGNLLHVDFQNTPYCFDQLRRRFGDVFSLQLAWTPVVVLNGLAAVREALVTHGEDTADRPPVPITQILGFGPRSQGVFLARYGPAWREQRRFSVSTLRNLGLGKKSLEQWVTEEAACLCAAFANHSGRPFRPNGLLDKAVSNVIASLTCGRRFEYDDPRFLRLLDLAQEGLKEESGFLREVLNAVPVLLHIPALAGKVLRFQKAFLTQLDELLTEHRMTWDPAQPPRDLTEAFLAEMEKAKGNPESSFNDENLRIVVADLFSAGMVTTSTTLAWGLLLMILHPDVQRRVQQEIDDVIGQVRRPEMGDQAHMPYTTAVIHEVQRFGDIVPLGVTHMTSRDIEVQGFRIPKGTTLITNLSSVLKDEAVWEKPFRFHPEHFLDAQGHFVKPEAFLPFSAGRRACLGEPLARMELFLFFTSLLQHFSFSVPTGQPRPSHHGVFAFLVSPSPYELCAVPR
Chain of CYP2D6 (P10635 whole entry): as above
Chain of Cytochrome P450 3A4 (P08684 whole entry): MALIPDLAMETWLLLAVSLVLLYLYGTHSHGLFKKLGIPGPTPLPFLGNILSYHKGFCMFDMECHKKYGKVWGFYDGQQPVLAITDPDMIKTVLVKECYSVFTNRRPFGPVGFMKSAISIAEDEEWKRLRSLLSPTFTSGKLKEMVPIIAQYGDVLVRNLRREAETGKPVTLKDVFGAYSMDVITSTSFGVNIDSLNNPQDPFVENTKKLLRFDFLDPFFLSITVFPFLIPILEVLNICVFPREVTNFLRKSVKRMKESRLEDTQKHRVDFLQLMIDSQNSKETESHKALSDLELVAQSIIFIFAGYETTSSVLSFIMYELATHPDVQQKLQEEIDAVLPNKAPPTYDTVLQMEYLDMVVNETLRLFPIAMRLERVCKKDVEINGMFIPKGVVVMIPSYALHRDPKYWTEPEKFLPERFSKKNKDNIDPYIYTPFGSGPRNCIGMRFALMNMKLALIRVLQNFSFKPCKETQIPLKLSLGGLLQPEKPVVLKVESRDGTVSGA
Chain of CYP3A4 (P08684 whole entry): as above

Ki [1]: 0.75 nM
Ki [2]: > 890 nM
Compound: COc1ccc(O[C@H](CC(C)C)[C@@H]2CCNC2)c(C)n1

Compound: COc1ccc(O[C@@H](CC(C)C)[C@H]2CCNC2)c(C)n1 (stereo in doubt; form 2)
Ki [1]: 0.21 nM
Ki [2]: 354 nM

Compound: COc1ccc(O[C@@H](CC(C)C)[C@H]2CCNC2)c(C)n1 [listing 1 of 2 here]
fraction unbound [3]: 0.43
Activity [4]: Non-toxic
Kp [5]: 3
concentration [6]: 146 nM
concentration [7]: 450 nM
IC50 [8]: > 10000 nM
IC50 [9]: > 10000 nM
IC50 [10]: > 10000 nM
IC50 [11]: > 10000 nM
inhibition at 10 µM [12]: < 30%
inhibition at 10 µM [13]: < 30%
inhibition at 10 µM [14]: < 30%
bioavailability [15]: 47%
bioavailability [16]: 31%
Vd [17]: 1.8 L/kg
Vd [18]: 7.6 L/kg
clearance [19]: 8.2 mL/min/kg
clearance [20]: 120 mL/min/kg
half-life [21]: 0.84 h
half-life [22]: 4.6 h
AUC(0-inf) [23]: 8.09 µM·h
AUC(0-inf) [24]: 0.6 µM·h
AUC(0-inf) [25]: 4.13 µM·h
AUC(0-inf) [26]: 0.251 µM·h
Tmax [27]: 1.3 h
Tmax [28]: 1.3 h
Cmax [29]: 503 nM
Cmax [30]: 65 nM
remaining at 0.5 h [31]: 28%
remaining at 0.5 h [32]: 57%
remaining at 0.5 h [33]: 92%
IC50 [1]: 1.9 nM
Ki [34]: 0.16 nM
ED80 [35]: 6.8 mg/kg
ED80 [36]: 10.6 mg/kg

Ki [1]: 0.84 nM
Ki [2]: > 890 nM
Compound: COc1ccc(O[C@@H](CC(C)C)[C@@H]2CCNC2)c(C)n1

Ki [2]: > 890 nM
Compound: COc1ccc(O[C@H](CC(C)C)[C@H]2CCNC2)c(C)n1

Compound: CCN(CC)C(=O)C1(c2ccccc2)CC1CN (stereo not drawn)
Ki [34]: 27 nM

Compound: COc1ccc(O[C@@H](CC(C)C)[C@H]2CCNC2)c(C)n1 (stereo in doubt; form 1)
Ki [1]: 0.22 nM
Ki [2]: 475 nM

Compound: COc1ccc(O[C@@H](CC(C)C)[C@H]2CCNC2)c(C)n1 [listing 2 of 2 here]
inhibition [37]: Active
Activity [38]: Dose-dependent effect
inhibition [39]: Dose-dependent effect
